From US8501166B2, “Pyrimidinyl indole compounds” (Hutchison Medipharma Limited, priority 2010, dated 2013) come the findings set out here.

Counter-ions that a name gives are not always drawn.

The test system of assay [1] is SKOV-3x-FF-luci human ovarian cancer xenograft. Description: Anti-tumor effects in SKOV-3x-FF-luci xenograft (alternate protocol, 23 days). The assay is classed as in vivo, Balb/c nu/nu mice. As for the experimental part: Alternately, the test compound is evaluated for its anti-tumor effects on tumor growth of human ovarian cancer SKOV-3x-FF-luci in nude mice. SKOV-3x-FF-luci cell line (ATCC) is cultured in McCoy's 5a medium containing 10% fetal calf serum. Female Balb/c nu/nu mice (6-7 weeks old) are injected peritoneally with 0.2 mL of cell suspension containing 2×10^6 cells. Mice are randomized and divided into four groups six days after cell implantation. The test compound at doses of 30 and 100 mg/kg is orally administered to animals twice a day for 23 consecutive days. Mice in the control group are administered the vehicle (10% Acacia), twice a day. Mice in the positive control group are injected with Cisplatin (4 mg/kg) via the tail vein once a week. At the end of the treatment, all mice are euthanized with CO2 and tumor nodules in the peritoneal cavity, diaphragmatic muscle, mesenterium, liver, spleen, and ovaries are dissected, harvested, and combined for the measurement of weight. Inhibition rate: IR %=(tumor weight in control−tumor weight in drug treated)/tumor weight in control×100%).

The test system of assay [2] is LPS-induced plasma IL-1β production. The assay can be described thus: LPS-induced plasma cytokine production in mouse, IL-1β. Type of assay: in vivo, Balb/c mice. The settings on record: even at the dose of 100 mg/kg. As for the experimental part: Alternately, the compound is screened for its ability to inhibit the LPS-induced cytokine production in rat plasma according to the method reported in the literature (Ziegelbauer K, Gantner F, Lukacs N W, et al. Br J. Pharmacol. 2005,145(2):178-92). Briefly, Lewis rats (male, body weight 140 g-180 g) are used in the experiments. Animals (8/group) are given 1 to 100 mg/kg of the testing compound (suspension in 35% solutol & 60% PEG400 & 5% PG) or vehicle by oral gavage at 1 h prior to intraperitoneal administration of LPS 0.4 mg/kg. Ninety minutes after the intraperitoneal administration of LPS, blood is collected in heparin anticoagulated tubes to measure TNFα using R&D System ELISA Kit based on the general Kit protocols. The plasma sample is diluted 100 fold with the dilution buffer and 50 μL of diluted sample is used in each measurement. The plate is read on a SPECTRAMAX® M2e Plus Plate Reader and TNFα levels are analyzed based on the standard curve. The drug levels in plasma are measured with LC-MS-MS. […] Alternately, the compound is screened for its ability to inhibit the LPS-induced cytokine production in mouse plasma. Balb/c mice (female, body weight 18-20 g) are used in the experiments. […] The plate is read on a SPECTRMAX® M2e Plus Plate Reader and the data is analyzed using a standard curve.

Assay [3] deals with SKOV-3x-FF-luci human ovarian cancer xenograft. Description: Anti-tumor effects in SKOV-3x-FF-luci xenograft (21 days). Type of assay: in vivo, Balb/c nu/nu mice. The settings on record: 60 mg/kg, tid, q6 h, oral. As for the experimental part: Anti-tumor Effects in Human Ovarian Cancer SKOV-3x-FF-luci Xenograft SKOV-3x-FF-luci human ovarian cancer line cell line (ATCC) is cultured in McCoy's 5a medium containing 10% fetal calf serum (FCS). Female Balb/c nu/nu mice (6-8 weeks old) are peritoneally injected with 0.2 mL of cell suspension containing 2×10^6 cells. Mice are divided into five groups six days after cell implantation. The test compound at doses of 60, 90 and 150 mg/kg is orally administered to animals for a consecutive 21 days with a twice a day (bid) or three times a day (tid) regimen. Mice in control groups are administered the vehicle (10% Acacia at pH 2.1, bid). At the end of the treatment, all mice are euthanized with CO2 and tumors in the peritoneal cavity, diaphragmatic muscle, mesenterium, liver, spleen, and ovaries are dissected and harvested, and put together for the measurement of their combined weight. Results of tumor weight and inhibition rate (IR) are evaluated. The inhibition rate is calculated with the formula: IR %=(tumor weight in control−tumor weight in drug treated)/tumor weight in control×100%.

For assay [4], the system named is HT-29 human colon cancer xenograft. The assay can be described thus: Anti-tumor effects in human colon cancer HT-29 xenograft with/without CPT-11. The assay is classed as in vivo, Balb/c nu/nu mice. As for the experimental part: IKKβ inhibitor has been reported to repress the HT-29 tumor growth when in combination with CPT-11 (Lagadec P, Griessinger E, Nawrot M P, et al. Br. J. Cancer (2008) 98, 335-344). The anti-tumor effect of the compound is then examined in a human colon cancer HT-29 xenograft in combination with CPT-11. The compound is tested for its anti-tumor effects in a human colon cancer HT-29 xenograft with/without the co-administration of CPT-11 essentially as described in a method reported in the literature (Lagadec P, Griessinger E, Nawrot M P, et al. Br. J. Cancer (2008) 98, 335-344).
The HT-29 human colorectal adenocarcinoma cell line is obtained from ATCC and cultured in McCoy's 5a medium containing 10% fetal calf serum. Male Balb/c nu/nu mice (6-7 weeks old) are injected subcutaneously in the right lateral flank with 0.1 mL of cell suspension containing 3.0×10^6 cells. Mice are divided into six groups, seven days after cell implantation. The test compound is orally administered twice a day at 60 and 20 mg/kg. CPT-11 at 20 mg/kg is peritoneally administered twice a week. In combination treatment, CPT-11 is given 1 h after the administration of the test compound. […] Two orthogonal diameters of the tumor are measured with digital vernier calipers three times a week. Tumor volume (TV) is measured and recorded during treatment period by the formula: TV=LengthxWidth^2/2. […]

`Cl.O=C(NC1CC1)c1cccc2[nH]c(-c3nc(N[C@@H]4CCC[C@H]4O)ncc3Cl)cc12` [Example 2, 2-{5-Chloro-2-[(1R,2R)-2-hydroxycyclopentylamino]pyrimidin-4-yl}-N-cyclopropyl-1H-indole-4-carboxamide hydrochloride]: the “tumor inhibition rate (IR)” value in assay [1] (30 mg/kg oral twice a day) was 59.3%; in assay [1] (100 mg/kg oral twice a day), 93.9%. For the same compound, the “effect on IL-1β production” value in assay [2] is “no effect was observed”.
Turning to `O=C(NC1CC1)c1cccc2[nH]c(-c3nc(N[C@@H]4CCC[C@@H]4O)ncc3Cl)cc12` [Example 1, 2-{5-Chloro-2-[(1R,2S)-2-hydroxycyclopentylamino]pyrimidin-4-yl}-N-cyclopropyl-1H-indole-4-carboxamide hydrochloride], in assay [3], the “Tumor Weight (g) (Mean ± S.D.)” value stood at 0.509 ± 0.193 g. Besides, in assay [3] (hydrochloride), the “IR (tumor inhibition rate)” value was found to be 76.31%. Moreover, the “HT-29 tumor growth, combination with CPT-11” value in assay [4] (60 or 20 mg/kg p.o. + CPT-11 20 mg/kg i.p., P<0.05) is given as “enhances the anti-tumor effect of CPT-11”. The “HT-29 tumor growth, single agent” value in assay [4] (60 or 20 mg/kg, p.o., twice a day) was “does not inhibit HT-29 tumor growth”.
